Results: patent publication US11382907B2, “Methods and compositions for treating aging-associated impairments using CCR3-inhibitors” (Alkahest, Inc., priority 2017, dated 2022)
Entries after “also recorded” stand apart in the source; their conditions may differ.

What was measured:
Iba1-positive microglia = assay: IHC of Iba1-positive microglia in hippocampus of mice given daily LPS; format: in vivo, C57Bl/6 mice; settings: 3-month-old mice, daily LPS IP 7 weeks, 30 mg/kg PO BID 4 weeks
Protocol: For fluorescent microscopy, the following antibodies were used in the given concentrations: GFAP, 1:500, DAKO; Iba1, 1:1000, Wako; and BrdU, 1:500, AbCam. Antigen retrieval protocol was required for BrdU (2N HCl, 37 C, 30 min) prior to blocking. The appropriate fluorescent secondary antibodies were applied the next day at a concentration of 1:300 for one hour at room temperature. Prolong Gold Mounting Media was used to coverslip the slides. Images were acquired on a light microscope at 5× magnification.
Three-month-old C57 mice were given daily doses of lipopolysaccharide (LPS) 0.5 mg/kg IP to induce inflammation and treated with Compound 1 for up to 4 weeks.
Treatment Groups: • Treatment Group 1, Vehicle treatment: 3-month-old C57 mice (n=10) received daily IP injection of LPS for 7 weeks and twice daily (BID) oral gavage (PO) treatment of vehicle solution for up to 4 weeks. • Treatment Group 2, Vehicle treatment and Oxazolone treatment: 3-month-old C57 mice (n=10) received daily IP injection of LPS for 7 weeks and twice daily (BID) oral gavage (PO) treatment of vehicle solution for up to 4 weeks. • Treatment Group 3, Compound 1 treatment and Oxazolone treatment: 3-month-old C57 mice (n=9) received daily IP injection of LPS for 7 weeks and twice daily (BID) oral gavage (PO) treatment of Compound 1, 30 mg/kg, for up to 4 weeks.

[1] = test system: CD68+ activated microglia; assay: IHC of CD68+ activated microglia in hippocampus of mice given daily LPS; format: in vivo, C57Bl/6 mice; settings: 3-month-old mice, daily LPS IP 7 weeks, 30 mg/kg PO BID 4 weeks
Description: (§1) Mice were taken down on the day following the end of behavior testing. Anesthesia was induced by 2,2,2-tribromoethanol and mice were subsequently perfused with 0.9% saline trans-cardially. The brains were dissected and cut sagitally in two even halves. One half was snap frozen for later use in dry ice, and the other was fixed in 4% paraformaldehyde in PBS for use in immunohistochemistry. After two days of fixation, the hemibrains were transferred to a 30% sucrose in PBS solution and changed after two days. Hemibrains were sectioned at 30 um on a microtome at −22° C. Brain sections were stored in cryoprotectant media at −20° C. until needed for staining. Blocking was done on free floating sections in the appropriate serum at 10% serum in PBST 0.5%. Primary antibodies were incubated overnight at 4 C. For light microscopy, the following antibodies were used in the given concentrations: DCX, 1:200, Santa Cruz BioTech, CD68, 1:1000. AbD Serotec. Secondary biotinylated antibodies were applied the next day at a concentration of 1:300. Staining visualization was achieved by reaction with the ABC kit (Vector) and diaminobenzidine (Sigma). Dehydration of the mounted slides was achieved using ethanol and xylene dips. Images were acquired on a Leica light microscope at 5× magnification. […]

blood eosinophils [2] = assay: Oxazolone-induced model of eosinophilia in hairless mice (CBC); format: in vivo; settings: 3-month-old hairless mice, oxazolone every other day, 30 mg/kg PO BID 2 weeks
Protocol: 3-month-old hairless mice were treated with oxazolone (Ox) every other day and treated with control saline or 30 mg/kg Compound 1 for 2 weeks BID, PO.
Treatment Groups: • Treatment Group 1, Vehicle treatment: 3-month-old Hairless mice (n=3) received twice daily (BID) oral gavage (PO) treatment of vehicle solution for 2 weeks. • Treatment Group 2, Vehicle treatment and Oxazolone treatment: 3-month-old Hairless mice (n=6) received twice daily (BID) oral gavage (PO) treatment of vehicle solution for 2 weeks. • Treatment Group 3, Compound 1 treatment and Oxazolone treatment: 3-month-old Hairless mice (n=6) received twice daily (BID) oral gavage (PO) treatment of Compound 1, 30 mg/kg, for 2 weeks.

blood eosinophils [3] = assay: Blood eosinophils in aged mice (FACS); format: in vivo, C57Bl/6 mice; settings: 23-month-old mice, 30 mg/kg SQ BID 30 days, subset n=2, 5
Protocol: 200 uL of whole blood was collected during perfusion and shipped to Charles River Clinical Pathology Services (Shrewsbury, Mass.) for hematology analysis of eosinophil count by FACS (fluorescence activated cell sorter).
23-month-old C57Bl/6 mice were dosed with either vehicle control or Compound 1 subcutaneously twice daily for 30 days, and then sacrificed on the day of the last injection.
Treatment Groups: • Treatment Group 1a, Vehicle treatment: Aged C57Bl/6 mice (n=9), aged 23 months, received twice daily (BID) subcutaneous (SQ) treatment of vehicle solution for 30 days. • Treatment Group 3, Compound 1 treatment: Aged C57Bl/6 mice (n=18), aged 23 months, received twice daily (BID) subcutaneous (SQ) treatment of Compound 1, 30 mg/kg, for 30 days.

[4] = test system: CD68+ activated microglia; assay: CD68+ activated microglia after one dose of LPS; format: in vivo, C57 mice; settings: 3-month-old mice; one dose LPS 10 mg/kg IP; 30 mg/kg BID oral gavage 18 days
Description: as §1

[5] = Pharmacokinetic profile after P.O. dosing (plasma concentration); format: in vivo; settings: mouse, 30 mg/kg oral gavage, male 2-month-old C57Bl/6 mice, for 8 hours, read-out: plasma concentration of Compound 1 maintained for 8 hours
Protocol: Compound levels were measured by MS/MS by Quintara (Hayward, Calif.).
Plasma from male 2-month-old C57Bl/6 mice was measured for concentrations of Compound 1 at time points of 20 minutes, 2 hours, 8 hours, and 12 hours after oral gavage at 2 doses: 30 mg/kg and 150 mg/kg.

## Cc1cc(C(=O)N(C)C)cc(NC(=O)[C@H]2CCC(=O)N2C2CCN(Cc3ccc(Cl)c(C)c3)CC2)n1 [Compound 1]
Iba1-positive microglia
  Iba1+ immunoreactivity (total microglia) in hippocampus: dramatically decreased Iba1+ immunoreactivity; also recorded: trend towards decrease
[1]
  CD68+ immunoreactivity (activated microglia) in hippocampus: dramatically decreased CD68+ immunoreactivity; also recorded: robust trend towards decrease
Blood eosinophils [2]
  blood eosinophils (percentage of WBC count): decreased the oxazolone-induced increase in blood eosinophils; also recorded: decreased an oxazolone-induced increase in blood eosinophils
Blood eosinophils [3]
  blood eosinophils (percentage of WBC count): strong trend towards decreased blood eosinophils; also recorded: decreased an endogenous age-related increase in blood eosinophils
[4]
  CD68+ immunoreactivity (activated microglia) in brain: significantly decreased CD68+ immunoreactivity
[5]
  concentration at 8 hours: > 100 nM
